Experimental data published in ChEMBL document CHEMBL4387784, “Triterpenoids from Ganoderma gibbosum: A Class of Sensitizers of FLC-Resistant Candida albicans to Fluconazole” (2019).
Activity calls are given as the source filed them. No cut-off for these calls is given here.

Columns and labels:
[1] = system: Candida albicans; experiment: Chemo-sensitization of fluconazole antifungal activity against FLC-resistant Candida albicans assessed as inhibition of microbial growth at 200 ug/mL in presence of fluconazole incubated for 24 hrs by microbroth dilution assay relative to untreated control; type: functional, organism-based
[2] = system: Candida albicans; experiment: Antifungal activity against FLC-resistant Candida albicans assessed as inhibition of microbial growth at 200 ug/mL incubated for 24 hrs by microbroth dilution assay relative to untreated control; type: functional; details: read-out: GI
[3] = system: Candida albicans; experiment: Chemo-sensitization of fluconazole antifungal activity against FLC-resistant Candida albicans assessed as inhibition of microbial growth in presence of fluconazole at 1:1 ratio of compound to fluconazole incubated for 24 hrs by microbroth dilution assay relative to untreated control; type: functional
[4] = system: Candida albicans; experiment: Antifungal activity against normal Candida albicans assessed as inhibition of microbial growth at 200 ug/mL incubated for 24 hrs by microbroth dilution assay relative to untreated control; type: functional; details: read-out: GI
[5] = system: Candida albicans; experiment: Antifungal activity against FLC-resistant Candida albicans assessed as inhibition of microbial growth incubated for 24 hrs by microbroth dilution assay relative to untreated control; type: functional

Row | Compound | growth inhibition (GI) [1] | inhibition of growth at 200 µg/mL [2] [%] | MIC50 [3] [µg/mL] | inhibition of growth at 200 µg/mL [4] [%] | MIC50 [5] [µg/mL]
1 | C/C(=C\C(=O)C[C@H](C)C(=O)O)[C@H]1C[C@H](O)[C@@]2(C)[C@]34O[C@@H]3C[C@H]3C(C)(C)C(=O)CC[C@]3(C)C4=CC(=O)[C@]12C | Active | < 50 | 7.3 | 55 | 
2 | C/C(=C\C(=O)C[C@H](C)C(=O)O)[C@H]1C[C@H](O)[C@@]2(C)C3=C(C=C[C@]12C)[C@@]1(C)CCC(=O)C(C)(C)[C@@H]1CC3=O | Active |  | 5.1 | < 50 | 
3 | C[C@@H](CC(=O)C[C@](C)(O)C1=C[C@@H](O)[C@]2(C)[C@]1(C)C(=O)C=C1[C@]23O[C@H]3C[C@H]2C(C)(C)[C@@H](O)CC[C@]12C)C(=O)O | Active |  | 8.8 | < 50 | 
4 | C/C(=C\C(=O)C[C@H](C)C(=O)O)[C@H]1C[C@@H](O)[C@@]2(C)C3=C(C[C@H](O)[C@]12C)[C@@]1(C)CCC(=O)C(C)(C)[C@@H]1CC3=O | Active |  |  | < 50 | 
5 | OC(Cn1cncn1)(Cn1cncn1)c1ccc(F)cc1F [FLUCONAZOLE] |  |  |  |  | 6.3
6 | C=C(C)[C@@H]1C[C@H]2O[C@@]23C(=CC(=O)[C@]2(C)[C@@H](/C(C)=C/[C@H]4C[C@H](C)C(=O)O4)C[C@H](O)[C@]23C)[C@@]1(C)CCC(=O)O | Active |  | 29.4 | < 50 | 
7 | C/C(=C\C(=O)C[C@H](C)C(=O)O)[C@H]1C[C@@H](O)[C@@]2(C)C3=C([C@@H](O)[C@H](O)[C@]12C)[C@@]1(C)CCC(=O)C(C)(C)[C@@H]1CC3=O | Active |  |  | < 50 | 
8 | C/C(=C\[C@H]1C[C@H](C)C(=O)O1)[C@H]1C[C@@H](O)[C@]2(C)[C@]1(C)C(=O)C=C1[C@@]3(C)CCC(=O)C(C)(C)[C@@H]3C[C@H]3O[C@@]132 | Active |  | 5 | < 50 | 
9 | C/C(=C\C(=O)C[C@H](C)C(=O)O)[C@H]1C[C@@H](O)[C@@]2(C)C3=C(C=C[C@]12C)[C@@]1(C)CCC(=O)C(C)(C)[C@@H]1CC3=O | Active |  |  | < 50 | 
10 | C/C(=C\[C@@H]1C[C@H](C)C(=O)O1)[C@H]1C[C@H](O)[C@]2(C)[C@]1(C)C(=O)C=C1[C@@]3(C)CCC(=O)C(C)(C)[C@@H]3C[C@H]3O[C@@]132 | Active |  | 4.7 | < 50 | 
11 | C/C(=C\C(=O)C[C@H](C)C(=O)O)[C@H]1C[C@H](O)[C@@]2(C)[C@]34O[C@H]3C[C@H]3C(C)(C)C(=O)CC[C@]3(C)C4=CC(=O)[C@]12C | Active |  |  | < 50 | 
12 | C[C@@H](CC(=O)C[C@](C)(O)C1=C[C@H](O)[C@]2(C)[C@]1(C)C(=O)C=C1[C@]23O[C@H]3C[C@H]2C(C)(C)C(=O)CC[C@]12C)C(=O)O | Active |  | 37.7 | < 50 | 
13 | C[C@@H](CC(=O)C[C@](C)(O)C1=CC(=O)[C@]2(C)[C@]1(C)C(=O)C=C1[C@]23O[C@H]3C[C@H]2C(C)(C)[C@@H](O)CC[C@]12C)C(=O)O | Active |  | 28.3 | < 50 | 
14 | C=C(C)[C@@H]1C[C@H]2O[C@@]23C(=CC(=O)[C@]2(C)[C@@H](/C(C)=C/[C@H]4C[C@H](C)C(=O)O4)C[C@@H](O)[C@]23C)[C@@]1(C)CCC(=O)O | Active |  | 25.8 | < 50 | 
15 | C[C@H]1C[C@@]2(C[C@](C)(O)C3=C[C@@H](O)[C@@]4(C)C5=C(C(=O)[C@H](O2)[C@]34C)[C@@]2(C)CCC(=O)C(C)(C)[C@@H]2CC5=O)OC1=O | Active |  | 78 | < 50 | 
16 | C/C(=C\C(=O)C[C@H](C)C(=O)O)[C@H]1C[C@@H](O)[C@@]2(C)C3=C(C(=O)[C@H](O)[C@]12C)[C@@]1(C)CCC(=O)C(C)(C)[C@@H]1CC3=O | Active |  | 4.4 | < 50 | 
17 | C/C(=C\[C@@H]1C[C@H](C)C(=O)O1)[C@H]1C[C@@H](O)[C@]2(C)[C@]1(C)C(=O)C=C1[C@@]3(C)CCC(=O)C(C)(C)[C@@H]3C[C@H]3O[C@@]132 | Active |  | 37.8 | < 50 | 
18 | C=C(C)[C@@H]1C[C@H]2O[C@@]23C(=CC(=O)[C@]2(C)[C@@H](/C(C)=C/[C@H]4C[C@H](C)C(=O)O4)C[C@H](O)[C@]23C)[C@@]1(C)CCC(=O)OC | Active |  | 129 | < 50 | 
19 | C[C@@H](CC(=O)C[C@](C)(O)C1=C[C@@H](O)[C@]2(C)[C@]1(C)C(=O)C=C1[C@]23O[C@H]3C[C@H]2C(C)(C)C(=O)CC[C@]12C)C(=O)O | Active |  | 29 | < 50 | 
20 | C/C(=C\C(=O)C[C@H](C)C(=O)O)[C@H]1C[C@H](O)[C@@]2(C)C3=CC[C@H]4C(C)(C)C(=O)CC[C@]4(C)C3=CC(=O)[C@]12C | Active |  | 70 | < 50 | 
21 | C/C(=C\[C@H]1C[C@H](C)C(=O)O1)[C@H]1C[C@H](O)[C@]2(C)[C@]1(C)C(=O)C=C1[C@@]3(C)CCC(=O)C(C)(C)[C@@H]3C[C@H]3O[C@@]132 | Active |  | 47.9 | < 50 | 
22 | C[C@@H](CC(=O)C[C@](C)(O)C1=CC(=O)[C@]2(C)[C@]1(C)C(=O)C=C1[C@]23O[C@H]3C[C@H]2C(C)(C)C(=O)CC[C@]12C)C(=O)O | Active |  | 3.8 | < 50 | 
